# Assay results reported in paper PMC6478823, “A suite of phenotypic assays to ensure pipeline diversity when prioritizing drug-like Cryptosporidium growth inhibitors” (Nature Communications, 2019).
# How the values were obtained:
# C. parvum [1] = assay type: cell-based, Cryptosporidium parvum; details: compound at EC90; for Invasion Assay: Mean % Inhibition (parasites), Average: average of replicates; for Invasion Assay: Mean % Inhibition (parasites), Replicate 1a: single biological replicate 1; for Invasion Assay: Mean % Inhibition (parasites), Replicate 2a: single biological replicate 2; for Sporozoite invasion: yes/no grouping by phenotypic assay result
# Procedure: The first step in infection is host cell invasion, which involves a complex process encompassing oocyst excystation, parasite motility, adhesion, and parasitophorous vacuole formation (Fig. 2a). Our strategy to assay for compounds affecting invasion was simply to expose C. parvum to compounds immediately after triggering excystation and throughout the invasion process, and then enumerate the parasite vacuoles after 3 h, prior to allowing the parasites to replicate (summarized in Fig. 2b).
# Fig. 2 Invasion Assay. a Overview of life cycle stage investigated during the invasion assay. Representative TEM images of a C. parvum oocyst and HCT-8 cell shortly after infection (Scale bar = 500 nm). b Schematic of experimental design. […] Each point represents the mean and SD of at least two biological replicates with four technical replicates per experiment.
# C. parvum invasion inhibition was measured by modifying the 48 h growth inhibition assay described above. […] In parallel, Iowa strain oocysts were excysted. […] Assay plates were incubated at 37 °C and 5% CO2 for 3 h.
# C. parvum [2] = test: DNA replication assay (EdU incorporation); assay type: cell-based, Cryptosporidium parvum; details: compound at EC90; for DNA Synthesis Assay: Mean % Inhibition of EdU-labeling (normalized to parasite numbers), Average: average of replicates; for DNA Synthesis Assay: Mean % Inhibition of EdU-labeling (normalized to parasite numbers), Replicate 1: single replicate 1; for DNA Synthesis Assay: Mean % Inhibition of EdU-labeling (normalized to parasite numbers), Replicate 2: single replicate 2; for DNA Synthesis Assay: Mean % Inhibition of EdU-labeling (normalized to parasite numbers), Replicate 3: single replicate 3; for DNA synthesis: yes/no grouping by phenotypic assay result; for DNA Synthesis Assay: Mean % Inhibition of EdU-labeling (normalized to parasite numbers), Replicate 4: single replicate 4
# [3] = system: C. parvum DMC1 expression; test: Sexual differentiation assay (DMC1 expression); assay type: cell-based, Cryptosporidium parvum; details: compound at asexual EC90, 48-72 h; for Asexual to sexual differentiation: Mean % DMC1 inhibition (normalized to host nuclei), Average: average of replicates; for Asexual to sexual differentiation: Mean % DMC1 inhibition (normalized to host nuclei), Replicate 1a: single replicate 1; for Asexual to sexual differentiation: Mean % DMC1 inhibition (normalized to host nuclei), Replicate 2a: single replicate 2; for Asexual to sexual differentiation: Mean % DMC1 inhibition (normalized to host nuclei), Replicate 3a: single replicate 3
# Source text: We utilized DMC1 as a marker of C. parvum sexual development, and used the anti-DMC1 monoclonal antibody to develop a moderate-throughput high-content microscopy assay for characterizing anticryptosporidial compounds (Fig. 6a). […] Therefore, in order to enable numerical comparison of the ability of compounds to block sexual development with moderate throughput, we adopted a strategy of reporting the percent inhibition of DMC1 expression by the previously determined EC90 of each compound in the standard asexual development assay (Fig. 6c and Supplementary Table 2).
# Fig. 6 Assay to measure asexual-to-sexual-stage conversion. a Schematic of the experimental approach. […] For b and c the mean and SD combined from at least two biological replicates with four technical replicates per experiment are shown. […] At given time points post-infection, infected cells were washed 3 times with PBS containing 111 mM of D-galactose, fixed for 15 min at room temperature with 4% paraformaldehyde in PBS, and permeabilized with 0.25% triton X-100 in PBS for 10 min at 37 °C. Cells were then washed 3 times with PBS and blocked at least overnight at 4 °C with 1% BSA in PBS (blocking buffer). Cells were stained with monoclonal antibody (1H10G7), either neat culture supernatant or 12.8 µg/mL of purified IgG in blocking buffer for 1 h at 37 °C, followed by 2 washes with PBS. Cells were then co-stained with a 1:500 dilution (4 µg/mL) of Alexa Fluor 568 goat anti-mouse IgG (Invitrogen, catalog# A-11004) and 1.33 µg/mL fluorescein-labeled Vicia villosa lectin (Vector Laboratories, catalog# FL-1231) diluted in blocking buffer for 1 h at 37 °C. Stains were then removed and 0.09 mM Hoechst 33258 (AnaSpec, catalog# AS-83219) also diluted in blocking buffer was added for another 15 min at 37 °C, followed by 2 PBS washes and imaging on a Nikon Eclipse Ti2000 epifluorescence microscope run with NIS-Elements Advanced Research software (Nikon, USA) and equipped with an EXi blue fluorescent microscopy camera (QImaging, Canada). For enumerating parasites, tiled 2 × 2 images with 15% overlapping edges were taken using a 40 × dry objective (0.7 NA), and for finer details, Z stack images were acquired using a 60 × oil objective (1.4 NA). Lectin positive cells in focus were first counted, followed by DMC1.
# For compound dose-response studies, the same assay was performed in 384-well plates and imaged using a 20 × dry objective (NA = 0.45). Tiled 4 × 4 to 6 × 6 images were taken. Images were analyzed using ImageJ software and the custom macro provided in Supplementary Method 2.
# C. parvum [4] = test: Egress, motility, reinvasion assay (PV ratio); details: compound at EC90; for Egress and Reinvasion Assay: Mean PV ratios (19.5h:6h), Average: average of replicates; for Egress and Reinvasion Assay: Mean PV ratios (19.5h:6h), Replicate 1a: single replicate 1; for Egress and Reinvasion Assay: Mean PV ratios (19.5h:6h), Replicate 2a: single replicate 2; for Egress and Reinvasion Assay: Mean PV ratios (19.5h:6h), Replicate 3a: single replicate 3; for Egress and Reinvasion Assay: Mean PV ratios (19.5h:6h), Replicate 4a: single replicate 4
# Procedure: For quantification of parasitophorous vacuoles over time, HCT-8 cells were grown to greater than 90% confluence in 384-well plates and infected with 11,000 oocysts after triggering excystation.
Structure (SMILES),"Invasion Assay: Mean % Inhibition (parasites), Average (C. parvum [1])","Invasion Assay: Mean % Inhibition (parasites), Replicate 1a (C. parvum [1])","Invasion Assay: Mean % Inhibition (parasites), Replicate 2a (C. parvum [1])","DNA Synthesis Assay: Mean % Inhibition of EdU-labeling (normalized to parasite numbers), Average (C. parvum [2])","DNA Synthesis Assay: Mean % Inhibition of EdU-labeling (normalized to parasite numbers), Replicate 1 (C. parvum [2])","DNA Synthesis Assay: Mean % Inhibition of EdU-labeling (normalized to parasite numbers), Replicate 2 (C. parvum [2])","DNA Synthesis Assay: Mean % Inhibition of EdU-labeling (normalized to parasite numbers), Replicate 3 (C. parvum [2])","Asexual to sexual differentiation: Mean % DMC1 inhibition (normalized to host nuclei), Average [3]","Asexual to sexual differentiation: Mean % DMC1 inhibition (normalized to host nuclei), Replicate 1a [3]","Asexual to sexual differentiation: Mean % DMC1 inhibition (normalized to host nuclei), Replicate 2a [3]","Egress and Reinvasion Assay: Mean PV ratios (19.5h:6h), Average (C. parvum [4])","Egress and Reinvasion Assay: Mean PV ratios (19.5h:6h), Replicate 1a (C. parvum [4])","Egress and Reinvasion Assay: Mean PV ratios (19.5h:6h), Replicate 2a (C. parvum [4])","Egress and Reinvasion Assay: Mean PV ratios (19.5h:6h), Replicate 3a (C. parvum [4])","Egress and Reinvasion Assay: Mean PV ratios (19.5h:6h), Replicate 4a (C. parvum [4])",Sporozoite invasion (C. parvum [1]),DNA synthesis (C. parvum [2]),also measured
CN(C)S(=O)(=O)c1ccc(C(=O)N2CCN(c3ccc4nncn4n3)CC2)cc1 [D-44],-11.48%,-25%,-14%,12.07%,29.16%,10.90%,-3.84%,74.35%,86.32%,62.37%,2.21,2.22,2.32,1.73,2.75,–,–,"Invasion Assay: Mean % Inhibition (parasites), Replicate 3a (C. parvum [1]; single biological replicate 3): 2%; Invasion Assay: Mean % Inhibition (parasites), Replicate 4a (C. parvum [1]; single biological replicate 4): -9%; Egress and Reinvasion Assay: Mean PV ratios (19.5h:6h), Replicate 5a (C. parvum [4]; single replicate 5): 1.96; Egress and Reinvasion Assay: Mean PV ratios (19.5h:6h), Replicate 6a (C. parvum [4]; single replicate 6): 2.29"
O=C(CC1NCCCC1O)Cn1cnc2cc(Br)c(Cl)cc2c1=O (centres unmarked) [Halofuginone],6.92%,11%,2.47%,88.20%,85.31%,91.09%,–,68.25%,51.29%,73.88%,0.69,0.76,1.01,0.53,0.46,–,–,"Asexual to sexual differentiation: Mean % DMC1 inhibition (normalized to host nuclei), Replicate 3a [3]: 79.59%"
CCOc1ccc(Cl)c2c1B(O)OC2CN (centres unmarked) [AN6426],-16.44%,-18%,-15%,86.81%,80.80%,89.13%,90.50%,62.47%,60.83%,64.12%,0.93,1.07,1.05,0.86,0.75,–,–,–
c1ccc(CNc2nc(NC3CCCC3)nc3ccccc23)cc1 [B-5],82.99%,81%,85%,-9.25%,-17.04%,19.85%,-30.57%,7.84%,11.99%,-2.17%,1.49,1.74,1.24,–,–,yes,no,"Asexual to sexual differentiation: Mean % DMC1 inhibition (normalized to host nuclei), Replicate 3a [3]: 13.72%"
Oc1c(CN2CCN(c3ccccc3F)CC2)cc(Br)c2cccnc12 [A-6],-20.21%,-18%,-23%,89.49%,98.00%,97.32%,80.45%,17.22%,31.05%,3.39%,0.79,0.65,0.93,–,–,no,yes,"DNA Synthesis Assay: Mean % Inhibition of EdU-labeling (normalized to parasite numbers), Replicate 4 (C. parvum [2]): 78.02%; DNA Synthesis Assay: Mean % Inhibition of EdU-labeling (normalized to parasite numbers), Replicate 5 (C. parvum [2]; single replicate 5): 93.68%"
Oc1c(C(Nc2ccccn2)c2cccc(Oc3ccccc3)c2)ccc2cccnc12 (centres unmarked) [A-2],-15.19%,-13%,-17%,100.00%,100%,100%,–,36.33%,56.25%,16.42%,0.69,0.67,0.71,–,–,no,yes,DNA synthesis (mean % inhibition) (C. parvum [2]; EdU added 9 h post-infection for 2 h): 100.00%
O=C(NC(c1ccccc1)c1ccc2cccnc2c1O)c1ccccc1 (centres unmarked) [A-5],-13.46%,-13%,-14%,99.95%,100.00%,100.00%,99.80%,65.35%,63.04%,67.67%,0.32,0.55,0.10,–,–,no,yes,"DNA Synthesis Assay: Mean % Inhibition of EdU-labeling (normalized to parasite numbers), Replicate 4 (C. parvum [2]): 100.00%"
